Test results as given in PubChem BioAssay (NCI).
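Dose response: 5 concentrations. Exposure: 48 h. Format: 96-well plates. Endpoint: linear interpolation; highest concentration if not reached. TGI denotes the concentration required for complete inhibition of growth.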

How the values were obtained:
Assay in all cases: NCI anticancer screen, dose series, 48 h
HOP-62 NSCLC = tested on: HOP-62 NSCLC
NCI-H23 lung = tested on: NCI-H23 lung
UO-31 renal = tested on: UO-31 renal
A549 NSCLC = tested on: A549 NSCLC
OVCAR-5 ovarian = tested on: OVCAR-5 ovarian
ACHN renal = tested on: ACHN renal
XF 498 CNS = tested on: XF 498 CNS
SNB-78 CNS = tested on: SNB-78 CNS
NCI-H226 lung = tested on: NCI-H226 lung
OVCAR-8 ovarian = tested on: OVCAR-8 ovarian
OVCAR-3 ovarian = tested on: OVCAR-3 ovarian
HCC-2998 colon = tested on: HCC-2998 colon
SF-268 CNS = tested on: SF-268 CNS
RXF 393 renal = tested on: RXF 393 renal
SF-539 CNS = tested on: SF-539 CNS
786-0 renal = tested on: 786-0 renal
UACC-62 melanoma = tested on: UACC-62 melanoma
K-562 leukemia = tested on: K-562 leukemia
HOP-92 NSCLC = tested on: HOP-92 NSCLC
HL-60(TB) leukemia = tested on: HL-60(TB) leukemia
EKVX NSCLC = tested on: EKVX NSCLC
LXFL 529 NSCLC = tested on: LXFL 529 NSCLC
DLD-1 colon = tested on: DLD-1 colon
SK-MEL-28 melanoma = tested on: SK-MEL-28 melanoma
UACC-257 melanoma = tested on: UACC-257 melanoma
SNB-19 CNS = tested on: SNB-19 CNS
SK-MEL-5 melanoma = tested on: SK-MEL-5 melanoma
COLO 205 colon = tested on: COLO 205 colon
SNB-75 CNS = tested on: SNB-75 CNS
SF-295 CNS = tested on: SF-295 CNS
CCRF-CEM leukemia = tested on: CCRF-CEM leukemia
MALME-3M melanoma = tested on: MALME-3M melanoma
DMS 273 small cell lung = tested on: DMS 273 small cell lung
U251 CNS = tested on: U251 CNS
SK-MEL-2 melanoma = tested on: SK-MEL-2 melanoma
OVCAR-4 ovarian = tested on: OVCAR-4 ovarian
M14 melanoma = tested on: M14 melanoma
KM12 colon = tested on: KM12 colon
SK-OV-3 ovarian = tested on: SK-OV-3 ovarian
MOLT-4 leukemia = tested on: MOLT-4 leukemia
SW-620 colon = tested on: SW-620 colon
HOP-18 NSCLC = tested on: HOP-18 NSCLC
NCI-H460 lung = tested on: NCI-H460 lung
A498 renal = tested on: A498 renal
CAKI-1 renal = tested on: CAKI-1 renal
NCI-H522 lung = tested on: NCI-H522 lung
RPMI-8226 leukemia = tested on: RPMI-8226 leukemia
IGROV1 ovarian = tested on: IGROV1 ovarian
HT29 colon = tested on: HT29 colon
SN12C renal = tested on: SN12C renal
DMS 114 small cell lung = tested on: DMS 114 small cell lung
M19-MEL melanoma = tested on: M19-MEL melanoma
HCT-116 colon = tested on: HCT-116 colon
TK-10 renal = tested on: TK-10 renal
KM20L2 colon = tested on: KM20L2 colon
LOX IMVI melanoma = tested on: LOX IMVI melanoma
HCT-15 colon = tested on: HCT-15 colon
MDA-MB-231 breast = tested on: MDA-MB-231 breast
PC-3 prostate = tested on: PC-3 prostate
NCI/ADR-RES ovarian = tested on: NCI/ADR-RES ovarian
HS 578T breast = tested on: HS 578T breast
MCF7 breast = tested on: MCF7 breast
MDA-MB-435 = tested on: MDA-MB-435
SR leukemia = tested on: SR leukemia
T-47D breast = tested on: T-47D breast
BT-549 breast = tested on: BT-549 breast
DU-145 prostate = tested on: DU-145 prostate

Measured: TGI

COC(c1ccccc1)C(c1ccccc1)N1CCOCC1 (stereo not drawn)
> 100 µM: HOP-62 NSCLC | NCI-H23 lung | UO-31 renal | A549 NSCLC | OVCAR-5 ovarian | ACHN renal | XF 498 CNS | SNB-78 CNS | NCI-H226 lung | OVCAR-8 ovarian | OVCAR-3 ovarian | HCC-2998 colon | SF-268 CNS | RXF 393 renal | SF-539 CNS | 786-0 renal | UACC-62 melanoma | K-562 leukemia | HOP-92 NSCLC | HL-60(TB) leukemia | EKVX NSCLC | LXFL 529 NSCLC | DLD-1 colon | SK-MEL-28 melanoma | UACC-257 melanoma | SNB-19 CNS | SK-MEL-5 melanoma | COLO 205 colon | SNB-75 CNS | SF-295 CNS | CCRF-CEM leukemia | MALME-3M melanoma | DMS 273 small cell lung | U251 CNS | SK-MEL-2 melanoma | OVCAR-4 ovarian | M14 melanoma | KM12 colon | SK-OV-3 ovarian | MOLT-4 leukemia | SW-620 colon | HOP-18 NSCLC | NCI-H460 lung | A498 renal | CAKI-1 renal | NCI-H522 lung | RPMI-8226 leukemia | IGROV1 ovarian | HT29 colon | SN12C renal | DMS 114 small cell lung | M19-MEL melanoma | HCT-116 colon | TK-10 renal | KM20L2 colon | LOX IMVI melanoma

NC(N)=NS(=O)(=O)c1ccc(NC(=O)c2cccc3c(=O)c4ccccc4[nH]c23)cc1
> 91.9 µM: SK-OV-3 ovarian
> 31.6 µM: CCRF-CEM leukemia
> 92.6 µM: 786-0 renal
69.2 µM: U251 CNS
> 81.2 µM: TK-10 renal
> 56.2 µM: K-562 leukemia
51.3 µM: SNB-75 CNS
> 96.2 µM: HOP-92 NSCLC
> 100 µM: HOP-62 NSCLC | NCI-H23 lung | HCT-15 colon | UO-31 renal | A549 NSCLC | OVCAR-5 ovarian | ACHN renal | XF 498 CNS | SNB-78 CNS | NCI-H226 lung | MDA-MB-231 breast | OVCAR-8 ovarian | PC-3 prostate | OVCAR-3 ovarian | HCC-2998 colon | SF-268 CNS | NCI/ADR-RES ovarian | HS 578T breast | SF-539 CNS | MCF7 breast | MDA-MB-435 | UACC-62 melanoma | SR leukemia | HL-60(TB) leukemia | EKVX NSCLC | LXFL 529 NSCLC | DLD-1 colon | SK-MEL-28 melanoma | UACC-257 melanoma | SNB-19 CNS | SK-MEL-5 melanoma | COLO 205 colon | SF-295 CNS | MALME-3M melanoma | DMS 273 small cell lung | SK-MEL-2 melanoma | OVCAR-4 ovarian | M14 melanoma | T-47D breast | BT-549 breast | KM12 colon | MOLT-4 leukemia | SW-620 colon | HOP-18 NSCLC | NCI-H460 lung | A498 renal | CAKI-1 renal | NCI-H522 lung | RPMI-8226 leukemia | IGROV1 ovarian | HT29 colon | SN12C renal | DMS 114 small cell lung | M19-MEL melanoma | HCT-116 colon | KM20L2 colon | LOX IMVI melanoma | DU-145 prostate
> 80.3 µM: RXF 393 renal
